Measurements taken from patent US9783545B2, “Pyrazolopyridazines and methods for treating retinal-degenerative diseases and hearing loss associated with usher syndrome” (Usher III Initiative, Inc., priority 2012, dated 2017).

target: T1, N48K Clarin-1 (Homo sapiens, UniProt P58418, N48K); assay: Restoration of expression of N48K Clarin-1, 24 hour incubation (high content imaging of HA-tagged N48K Clarin-1); assay type: cell-based; set-up: IC50: scale not given here; conditions: HEK293-Clarin-1 N48K-HA D9 cell line, 24 hr incubation with compound
T1 construct: expressed in transfected cells
T1 sequence (P58418 1-232 N48K): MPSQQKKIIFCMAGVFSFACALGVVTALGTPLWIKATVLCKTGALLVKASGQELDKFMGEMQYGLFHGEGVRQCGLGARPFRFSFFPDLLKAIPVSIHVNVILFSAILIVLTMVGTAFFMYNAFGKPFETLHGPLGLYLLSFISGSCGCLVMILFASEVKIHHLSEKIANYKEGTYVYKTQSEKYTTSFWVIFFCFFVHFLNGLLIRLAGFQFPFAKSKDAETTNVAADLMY
Experimental: Assay Method Showing Activity of Compounds of the Invention that Restore Expression of N48K Clarin-1 (24 hour incubation)
Clarin-1 is the protein encoded by the gene mutated in Usher III Syndrome (Adato et al., 2002). The most prevalent mutation in Clarin-1 in North America is N48K, which is reported to cause loss of glycosylation and a trafficking defect (Tian et al., 2009). […] Thus it is believed that restoring the trafficking of N48K Clarin-1 to the cell surface provides an avenue of intervention for Usher III Sydrome.
In a typical experiment, these cells were seeded on collagen-coated 96-well plates at a cell density of 20,000 cells per well in Dulbecco's Modified Eagle Medium (DMEM) contain 10% fetal bovine serum in a humidified incubator at 37° C., 5% CO2. After an overnight incubation, compounds were added for a 24 hr incubation in DMEM medium contain 10% fetal bovine serum in a humidified incubator at 37° C., 5% CO2. As a negative control, DMSO was used at 0.25% final concentrations. Compounds were typically tested in triplicate fashion. After the 24 hr incubation with compounds, the cells were fixed by the addition of 10% buffered formalin to the wells to achieve a final concentration of 4% formalin. After a 20 min fixation at room temperature, wells were washed three times with phosphate-buffered saline (PBS) containing Triton X-100 (0.02 phosphate, 150 mM NaCl, 0.1% Triton X-100).
The HA-tagged N48K Clarin-1 was detected with an antibody against the HA tag (HA.11 Clone 16B12 Monoclonal antibody, Covance #MMS-101P) at a dilution of 1:1000 in PBS containing Triton X-100. After a 90 min incubation, wells were washed three times with PBS containing Triton X-100, and a secondary antibody (Goat anti-mouse IgG-Cy3 (1.5 mg/ml), Jackson IR Europe #115165003) was added to the wells at a dilution of 1:250 in PBS containing Triton X-100 for 45 min. Wells were subsequently washed three times with PBS containing Triton X-100, and a final staining for nuclei was performed by the addition of DAPI (4′,6-diamidino-2-phenylindole) at a dilution of 1:10,000. The imaging of the stained cells was performed on an InCell 1000 High Content Imager (GE Healthcare), reading out the Cy3 channel for N48K Clarin-1 and the DAPI channel for nuclei. The images were analyzed and quantitated using a specific algorithm. This algorithm measured the HA-Clarin-1 staining for each cell based on the additional nuclear segmentation of the DAPI signal (FIG. 1). This algorithm measured the intensity per cell, and thus it is less sensitive for variation in cell number. Per well, approximately 2,000 cells were measured to achieve an average density per cell measurement. FIG. 1 illustrates high content analysis. DAPI-stained nuclei are used to perform segmentation of the image into individual cells. The density observed in the N48K Clarin-1 channel (Cy3) is then calculated per cell averaged over a field.

IC50	SMILES
A, B	OCCn1nc(C2CC2)c2c(Cl)c(-c3ccccc3)nnc21 [Iff, 2-(4-chloro-3-cyclopropyl-5-phenyl-pyrazolo[3,4-c]pyridazin-1-yl)ethanol]

same assay, conditions: HEK293-Clarin-1 N48K-HA D9 cell line, 24 hr incubation with compound; read-out: IC50 (the source's name)

EC50	SMILES
5000 to 21000 nM	CN1CCN(CCn2nc3nnc(-c4ccccc4)c(Cl)c3c2I)CC1 [Compound 20, 4-Chloro-3-iodo-2-(2-(4-methylpiperazin-1-yl)ethyl)-5-phenyl-2H-pyrazolo[3,4-c]pyridazine]
2000 to 5000 nM	Cn1nc(C2CC2)c2c(Cl)c(-c3ccccc3)nnc21 [Compound 21, 4-chloro-3-cyclopropyl-1-methyl-5-phenyl-pyrazolo[3,4-c]pyridazine]
≤ 2000 nM	Cc1nn(C)c2nnc(-c3ccccc3)c(Cl)c12 [Compound 22, 4-chloro-1,3-dimethyl-5-phenyl-pyrazolo[3,4-c]pyridazine]
2000 to 5000 nM	Cc1nn(C)c2nnc(-c3ccccc3)c(Br)c12 [Compound 23, 4-bromo-1,3-dimethyl-5-phenyl-pyrazolo[3,4-c]pyridazine]
≤ 2000 nM	Cc1nn(C)c2nnc(-c3ccccc3)c(F)c12 [Compound 24, 4-fluoro-1,3-dimethyl-5-phenyl-pyrazolo[3,4-c]pyridazine]
≤ 2000 nM	Cc1nn(C)c2nnc(-c3cccc(F)c3)c(Cl)c12 [Compound 25, 4-chloro-5-(3-fluorophenyl)-1,3-dimethyl-pyrazolo[3,4-c]pyridazine]
≤ 2000 nM	Cn1nc(-c2cccnc2)c2c(Cl)c(-c3ccccc3)nnc21 [Compound 26, 4-chloro-1-methyl-5-phenyl-3-(3-pyridyl)pyrazolo[3,4-c]pyridazine]
2000 to 5000 nM	Cn1nc(C2CCCC2)c2c(Cl)c(-c3ccccc3)nnc21 [Compound 27, 4-chloro-3-cyclopentyl-1-methyl-5-phenyl-pyrazolo[3,4-c]pyridazine]
≤ 2000 nM	Cn1nc(-c2ccccc2)c2c(Cl)c(-c3ccsc3)nnc21 [IIIc, 4-chloro-1-methyl-3-phenyl-5-(3-thienyl)pyrazolo[3,4-c]pyridazine]
≤ 2000 nM	Cn1nc(-c2ccccc2)c2c(Cl)c(-c3cccnc3)nnc21 [IIId, 4-chloro-1-methyl-3-phenyl-5-(3-pyridyl)pyrazolo[3,4-c]pyridazine]
≤ 2000 nM	FC(F)(F)CCn1nc(-c2ccccc2)c2c(Cl)c(-c3ccccc3)nnc21 [IId, 4-chloro-3,5-diphenyl-1-(3,3,3-trifluoropropyl)pyrazolo[3,4-c]pyridazine]
≤ 2000 nM	Clc1c(-c2ccccc2)nnc2c1c(-c1ccccc1)nn2C1CCOCC1 [IIe, 4-chloro-3,5-diphenyl-1-tetrahydropyran-4-yl-pyrazolo[3,4-c]pyridazine]
≤ 2000 nM	FC(F)(F)Cn1nc(-c2ccccc2)c2c(Cl)c(-c3ccccc3)nnc21 [IIk, 4-chloro-3,5-diphenyl-1(2,2,2-trifluoroethyl)pyrazolo[3,4-c]pyridazine]
≤ 2000 nM	CC(=O)CCn1nc(-c2ccccc2)c2c(Cl)c(-c3ccccc3)nnc21 [IIm, 4-(4-chloro-3,5-diphenyl-pyrazolo[3,4-c]pyridazin-1-yl)butan-2-one]
≤ 2000 nM	Clc1c(-c2ccccc2)nnc2c1c(-c1ccccc1)nn2Cc1ccncc1 [IIo, 4-chloro-3,5-diphenyl-1-(4-pyridylmethyl)pyrazolo[3,4-c]pyridazine]
≤ 2000 nM	Clc1c(-c2ccccc2)nnc2c1c(-c1ccccc1)nn2Cc1ccccn1 [IIp, 4-chloro-3,5-diphenyl-1-(2-pyridylmethyl)pyrazolo[3,4-c]pyridazine]
≤ 2000 nM	O=C1CCCN1CCn1nc(-c2cccc(F)c2)c2c(Cl)c(-c3ccccc3)nnc21 [IIr, 1-[2-[4-chloro-3-(3-fluorophenyl)-5-phenyl-pyrazolo[3,4-c]pyridazin-1-yl]ethyl]pyrrolidin-2-one]

EC50	SMILES
≤ 2000 nM	CN1CCN(CCn2nc(I)c3c(Cl)c(-c4ccccc4)nnc32)CC1 [Ia, 4-Chloro-3-iodo-1-(2-(4-methylpiperazin-1-yl)ethyl)-5-phenyl-1H-pyrazolo[3,4-c]pyridazine]
2000 to 5000 nM	O=C(Cn1nc(C(F)(F)F)c2c(Cl)c(-c3ccccc3)nnc21)N1CCCC1 [Iaa, 2-[4-chloro-5-phenyl-3-(trifluoromethyl)pyrazolo[3,4-c]pyridazin-1-yl]-1-pyrrolidin-1-yl-ethanone]
5000 to 21000 nM	CN1CCN(CCn2ncc3c(Cl)c(-c4ccccc4)nnc32)CC1 [Ib, 4-Chloro-1-(2-(4-methylpiperazin-1-yl)ethyl)-5-phenyl-1H-pyrazolo[3,4-c]pyridazine]
2000 to 5000 nM	Clc1c(-c2ccccc2)nnc2[nH]nc(Br)c12 [Ibb, 3-bromo-4-chloro-5-phenyl-1H-pyrazolo[3,4-c]pyridazine]
≤ 2000 nM	CN1CCN(CCn2nc(-c3cccc(C(=O)N4CCCC4)c3)c3c(Cl)c(-c4ccccc4)nnc32)CC1 [Id, (3-(4-chloro-1-(2-(4-methylpiperazin-1-yl)ethyl)-5-phenyl-1H-pyrazolo[3,4-c]pyridazin-3-yl)phenyl)(pyrrolidin-1-yl)methanone]
≤ 2000 nM	Clc1c(-c2ccccc2)nnc2[nH]nc(C3CC3)c12 [Idd, 4-chloro-3-cyclopropyl-5-phenyl-1H-pyrazolo[3,4-c]pyridazine]
≤ 2000 nM	CN1CCN(CCn2nc(-c3ccnc(C(F)(F)F)c3)c3c(Cl)c(-c4ccccc4)nnc32)CC1 [Ie, 4-chloro-1-(2-(4-methylpiperazin-1-yl)ethyl)-5-phenyl-3-(2-(trifluoromethyl)pyridin-4-yl)-1H-pyrazolo[3,4-c]pyridazine]
2000 to 5000 nM	O=C(Cn1nc(C2CC2)c2c(Cl)c(-c3ccccc3)nnc21)N1CCCC1 [Iee, 2-(4-chloro-3-cyclopropyl-5-phenyl-pyrazolo[3,4-c]pyridazin-1-yl)-1-pyrrolidin-1-yl-ethanone]
≤ 2000 nM	CN1CCN(CCn2nc(C3=CCOCC3)c3c(Cl)c(-c4ccccc4)nnc32)CC1 [If, 4-chloro-3-(3,6-dihydro-2H-pyran-4-yl)-1-(2-(4-methylpiperazin-1-yl)ethyl)-5-phenyl-1H-pyrazolo[3,4-c]pyridazine]
≤ 2000 nM	CN1CCN(CCn2nc(/C=C/c3ccccc3)c3c(Cl)c(-c4ccccc4)nnc32)CC1 [Ig, (E)-4-chloro-1-(2-(4-methylpiperazin-1-yl)ethyl)-5-phenyl-3-styryl-1H-pyrazolo[3,4-c]pyridazine]
2000 to 5000 nM	CN(C)CCNC(=O)Cn1nc(-c2cccnc2)c2c(Cl)c(-c3ccccc3)nnc21 [Igg, 2-[4-chloro-5-phenyl-3-(3-pyridyl)pyrazolo[3,4-c]pyridazin-1-yl]-N-(2-dimethylaminoethyl)acetamide]
2000 to 5000 nM	CN1CCN(CCn2nc(-c3ccc(C(F)(F)F)nc3)c3c(Cl)c(-c4ccccc4)nnc32)CC1 [Ih, 4-chloro-1-(2-(4-methylpiperazin-1-yl)ethyl)-5-phenyl-3-(6-(trifluoromethyl)pyridin-3-yl)-1H-pyrazolo[3,4-c]pyridazine]
≤ 2000 nM	Cc1nn(CCO)c2nnc(-c3ccccc3)c(Cl)c12 [Ihh, 2-(4-chloro-3-methyl-5-phenyl-pyrazolo[3,4-c]pyridazin-1-yl)ethanol]
≤ 2000 nM	CN1CCN(CCn2nc(-c3cc4ccccc4o3)c3c(Cl)c(-c4ccccc4)nnc32)CC1 [Ij, 3-(benzofuran-2-yl)-4-chloro-1-(2-(4-methylpiperazin-1-yl)ethyl)-5-phenyl-1H-pyrazolo[3,4-c]pyridazine]
≤ 2000 nM	CN1CCN(CCn2nc(-c3cc4ccccc4[nH]3)c3c(Cl)c(-c4ccccc4)nnc32)CC1 [Im, 4-chloro-3-(1H-indol-2-yl)-1-(2-(4-methylpiperazin-1-yl)ethyl)-5-phenyl-1H-pyrazolo[3,4-c]pyridazine]
≤ 2000 nM	O=C(Cn1nc(C2=CCCC2)c2c(Cl)c(-c3ccccc3)nnc21)N1CCCC1 [In, 2-(4-chloro-3-(cyclopent-1-en-1-yl)-5-phenyl-1H-pyrazolo[3,4-c]pyridazin-1-yl)-1-(pyrrolidin-1-yl)ethanone]
